Test results: US20130109616A1, “ANTIMICROBIAL PEPTIDES” (priority 2010, published 2013)
“Also recorded” adds a separate entry of the source.

Experiments:
[1] = system: subtilisin or V8 protease; test: Protease resistance: membrane-binding ELISA after protease pre-incubation; details: subtilisin and/or V8 protease, 30 minutes at room temperature, FIG. 1
[2] = system: Burkholderia cepacia J2540; format: cell-based
E. coli = test: Modified microtitre broth dilution, IC50/IC90; format: cell-based, Escherichia coli; set-up: unit not given here
[3] = system: B. anthracis UM23-CI2 spores; format: cell-based, Bacillus anthracis
Vaccinia virus = format: cell-based
[4] = system: B. anthracis UM23-CI2 vegetative cells; format: cell-based, Bacillus anthracis
[5] = system: Staphylococcus aureus (NC131142); test: Serial dilution growth/killing assay; format: cell-based; details: peptides C-terminally amidated
[6] = system: Candida albicans (SC5314); test: Serial dilution growth/killing assay; format: cell-based; details: serial dilutions, 14 hours at 30° C., FIG. 6; peptides C-terminally amidated
[7] = system: Bacillus subtilis membranes; test: Membrane-binding ELISA; details: expressed peptide fused to 3×FLAG-10×His, no protease

Row | Substance | ELISA binding signal after protease treatment (proteolytic resistance) [1] | effect on growth of B. cepacia [2] | IC50 (E. coli) | IC90 (E. coli) | bactericidal activity against Bacillus anthracis spores (in words) [3] | activity against B. cepacia at 24 hours [2] | reduction of the starting culture of B. cepacia [2] [%] | anti-viral activity against Vaccinia virus compared with LL-37 (Vaccinia virus) | duration of antibacterial activity, spores [3] | change in cell number, exponential phase cells [4] | duration of antibacterial activity, vegetative cells [4] | colonies recovered, S. aureus ([5]; 25 nM peptide) | killing of S. aureus compared with MAF-23 peptides ([5]; serial dilutions, 14 hours at 30° C., FIG. 5) | killing of C. albicans compared with MAF-23 peptides [6] | binding to immobilised Bacillus subtilis membranes (ELISA signal) [7] | activity against Bacillus anthracis vegetative cells (in words) [4]
1 | VKRIVQRIKVFLRNLMPRSKS [Peptide G11] | increase signal strength | prevent B. cepacia from growing | 31.3-62.5 | 62.5-125 | improved bactericidal activity |  |  |  |  |  |  |  |  |  |  | 
2 | FKRIVQRIKDFLRKLVPRIMS [Peptide H04] |  |  | 7.8-15.6 | 15.6-31.3 | improved bactericidal activity | no bacteria were detectable; also recorded: effective killing activity over the entire duration of the 24-hour testing period | 99.9 | greater anti-viral activity than the wild-type peptide, LL-37 | still effective at the end of the 24-hour period | further reductions in cell number | still effective at the end of the 24-hour period |  |  |  |  | 
3 | LLGVFFRKRKAKIGKKFKRILQRIKDFRRNLVPRIKS [Peptide C11] |  | prevent B. cepacia from growing | 15.6-31.3 | 31.3-62.5 | improved bactericidal activity |  |  |  |  |  |  |  |  |  |  | 
4 | FRRIVQRIKDFLRNLVMRRKN [Peptide F11, FRRIVQRIKDFLRNLV MRRKN] |  |  | 7.8-15.6 | 7.8-15.6 | improved bactericidal activity | effective killing activity over the entire duration of the 24-hour testing period | ~99 | greater anti-viral activity than the wild-type peptide, LL-37 | still effective at the end of the 24-hour period | further reductions in cell number | still effective at the end of the 24-hour period | approximately 10^3 colonies/ml | killed S. aureus more effectively than the MA23 or N-terminally acetylated MA23 | killed C. albicans more effectively than the wild type peptides MAF23 and acetylated MAF23 |  | 
5 | wild-type full length LL-37 peptide fused to 3×FLAG-10×His [reference compound] | abolished the signal |  |  |  |  |  |  |  |  |  |  |  |  |  | significant binding | 
6 | LLGDFFRKSKEKIGKEFKRIVQRIKDFLRNLVPRTES [LL-37, reference compound] |  | no effect on the growth | 15.6-31.3 | 15.6-31.3 | better activity than MA-22 |  |  |  | activity was lost within the 24 hour period |  |  |  |  |  |  | did not have activity
